Data on 17 compounds can be found in publication PMC11050014, “Development of Novel Peptidyl Nitriles Targeting Rhodesain and Falcipain-2 for the Treatment of Sleeping Sickness and Malaria” (International Journal of Molecular Sciences, 2024).

Read-outs that look alike come from different tables or passages of the source.

Broadly, the inhibition is the relative decrease from the control value, in per cent. Usually melting point stands for the temperature, or range, at which the solid turns liquid. For orientation: IC50 means the concentration that inhibits the measured activity by half. The Ki is the equilibrium dissociation constant of an inhibitor or competing ligand from its target.

The target in one data set is T1, recombinant rhodesain (Trypanosoma brucei rhodesiense, UniProt Q95PM0).
T1 construct: Rhodesain was recombinantly expressed as previously described; made in house
T1 sequence (Q95PM0 entry or part of it): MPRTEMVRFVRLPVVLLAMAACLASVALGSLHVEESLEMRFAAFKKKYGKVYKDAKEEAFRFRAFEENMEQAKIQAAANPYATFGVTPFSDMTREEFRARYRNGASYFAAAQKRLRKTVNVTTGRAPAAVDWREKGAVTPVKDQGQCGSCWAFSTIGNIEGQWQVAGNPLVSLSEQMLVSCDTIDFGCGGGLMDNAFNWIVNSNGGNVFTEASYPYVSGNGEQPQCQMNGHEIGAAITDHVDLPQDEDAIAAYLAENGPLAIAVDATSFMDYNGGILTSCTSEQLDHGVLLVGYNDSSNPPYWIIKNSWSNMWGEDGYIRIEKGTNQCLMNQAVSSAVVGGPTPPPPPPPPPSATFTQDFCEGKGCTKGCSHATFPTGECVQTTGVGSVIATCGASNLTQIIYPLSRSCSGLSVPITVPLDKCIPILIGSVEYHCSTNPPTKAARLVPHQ
Kind of data set: Enzyme assay against recombinant rhodesain, fluorogenic substrate Cbz-Phe-Arg-AMC. The data set is classed as biochemical. The following applies: for inhibition at 100 µM: read-out: Rhodesain Percentage of Inhibition at 100 μM. As for the experimental part:
All compounds 1-8a-b were tested against recombinant rhodesain [34] by using Cbz-Phe-Arg-AMC as a fluorogenic substrate (Table 1). First, a preliminary screening at a fixed inhibitor concentration of 100 μM was performed.
An equivalent volume of DMSO was used as the negative control, and E-64, an irreversible inhibitor of clan CA family C1 cysteine proteases, was used as the positive control. For compounds that inhibited the enzyme activity at least 50% at […], continuous assays were performed at seven different concentrations to determine dissociation constants.
Preliminary screening with rhodesain was performed with 100 µM inhibitor concentrations using an equivalent amount of DMSO as negative control. Rhodesain was recombinantly expressed as previously described. Product release from substrate hydrolysis (Cbz-Phe-Arg-AMC, 10 µM) was determined continuously over a period of 10 min. […] The assay buffer contained 50 mM sodium acetate, pH = 5.5, 5 mM EDTA, 200 mM NaCl, and 0.005% Brij. The enzyme buffer contained 5 mM DTT rather than Brij. Product formation was monitored continuously for 10 min at room temperature. Inhibitor solutions were prepared from stocks in DMSO. Each independent assay was performed twice in duplicate in 96-well plates in a total volume of 200 µL. Fluorescence of the product AMC of the substrate hydrolyses was measured using an Infinite 200 PRO microplate reader (Tecan, Männedorf, Switzerland) at room temperature with a 380 nm excitation filter and a 460 nm emission filter.

Data set [1] concerns Bloodstream T. brucei parasites (T. b. brucei). Kind of data set: Antitrypanosomal activity, ATPlite cell viability assay. The data set is classed as cell-based. The following applies: Trypanosoma brucei.
Protocol: The final compound concentrations in the microplates were 33.3 µM to 65 nM.
Bloodstream T. brucei parasites were incubated in the presence of various concentrations of the tested compounds and after 24 h or 48 h cell viability was determined using the ATPlite (PerkinElmer, Waltham, MA, USA) assay. Chlorhexidine served as positive control. […] Cell viability data was normalized to the untreated controls and analyzed using GraphPad Prism. Whenever possible, data were fitted by log(inhibitor) vs response nonlinear fit (solid lines) and IC50 values were calculated.
Data set [2] has as its target T2, recombinant FP-2 (falcipain-2) (Plasmodium falciparum, UniProt Q8I6U4).
T2 construct: recombinant FP-2, which was expressed and purified as previously reported; made in house
T2 sequence (Q8I6U4 244-484): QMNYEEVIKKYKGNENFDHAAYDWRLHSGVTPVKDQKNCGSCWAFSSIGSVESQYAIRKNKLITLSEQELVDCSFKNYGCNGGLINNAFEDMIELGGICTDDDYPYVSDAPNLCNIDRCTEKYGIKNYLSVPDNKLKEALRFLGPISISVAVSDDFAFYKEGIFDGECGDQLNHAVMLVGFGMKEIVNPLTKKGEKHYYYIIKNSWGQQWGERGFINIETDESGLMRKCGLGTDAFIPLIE
Kind of data set: FP-2 inhibition assay, fluorogenic substrate Cbz-Leu-Arg-AMC. The data set is classed as biochemical. Conditions: 30 nM FP-2, Cbz-Leu-Arg-AMC 25 µM, pH 5.5. The protocol:
Compounds were tested for inhibition of recombinant FP-2, which was expressed and purified as previously reported. Stock solutions of the compounds, substrate, and the positive control E64 (Sigma Aldrich, St. Louis, MO, USA) were prepared at 10 mM in 100% DMSO. The compounds were incubated in 96-well white flat-bottom plates with 30 nM recombinant FP-2 for 10 min at room temperature in an assay buffer of 100 mM sodium acetate, pH 5.5, with 5 mM DTT. After incubation, the fluorogenic substrate Cbz-Leu-Arg-AMC (R&D Systems, Minneapolis, MN, USA) was added at a concentration of 25 µM in a final assay volume of 200 µL. Fluorescence was monitored with a Varioskan Flash (ThermoScientific, Waltham, MA, USA) with excitation 355 nm and emission 460 nm. The IC50 values were calculated using GraphPad Prism v. 6 (GraphPad Software Inc., San Diego, CA, USA)) based on a sigmoidal dose response curves.

Where [3] appears, read: 24 h incubation, ATPlite cell viability, read-out: Antitrypanosomal IC50 (24 h).
[4] abbreviates: inhibitor 100 μM, n.i. = no inhibition.

`N#C[C@H](CCc1ccccc1)NC(=O)Cn1ccc2cc(F)ccc21` [4a, N-((S)-1-Cyano-3-phenylpropyl)-2-(5-fluoro-1H-indol-1-yl)acetamide]: the melting point lay within 150 to 152 °C. Besides, at recombinant rhodesain, the inhibition at 100 µM worked out at 18.7%.

With `[H]/N=C(\N/C(=N/[H])NCCCCCCNC(=N)NC(=N)Nc1ccc(Cl)cc1)Nc1ccc(Cl)cc1` [Chlorhexidine, chlorhexidine, reference compound], the IC50 in data set [1] (48 h, read-out: Antitrypanosomal IC50 (48 h)) was 0.7 ± 0.2 µM; in data set [1] (setting [3]) it was 0.98 µM.

In turn, `Cc1cc2ccccc2n1CC(=O)N[C@H](C#N)CCc1ccccc1` [2a, N-((S)-1-Cyano-3-phenylpropyl)-2-(2-methyl-1H-indol-1-yl)acetamide] came in with a melting point of 131 to 133 °C. The IC50 in data set [2] is greater than 50 µM.

In turn, `N#C[C@H](CCc1ccccc1)NC(=O)CCn1ccc2ccccc21` [1b, N-((S)-1-Cyano-3-phenylpropyl)-3-(1H-indol-1-yl)propanamide] showed a melting point of 155 to 156 °C. In data set [2], the IC50 was greater than 50 µM. In addition, at recombinant rhodesain (setting [4]), the “Rhodesain Percentage of Inhibition at 100 μM” value was “n.i”.

In the case of `N#C[C@H](CCc1ccccc1)NC(=O)Cn1ccc2ccccc21` [1a, N-((S)-1-Cyano-3-phenylpropyl)2-(1H-indol-1-yl)acetamide], the melting point was in the range of 120 to 121 °C. Further, the IC50 in data set [1] (24 h incubation, ATPlite cell viability, fitted beyond tested range (max 33.3 µM), read-out: Antitrypanosomal IC50 (24 h)) was determined as 1500 ± 2000 µM. For the same compound, the IC50 in data set [1] (48 h incubation, ATPlite cell viability, fitted beyond tested range (max 33.3 µM), read-out: Antitrypanosomal IC50 (48 h)) worked out at 280 ± 290 µM. Further, the IC50 in data set [2] is greater than 50 µM.

For `CC(C)C[C@H](NC(=O)[C@H]1O[C@@H]1C(=O)O)C(=O)NCCCCN=C(N)N` [E-64, reference compound], the IC50 in data set [2] stood at 0.051 µM. Besides, at recombinant rhodesain (Cbz-Phe-Arg-AMC 10 µM, pH 5.5, progress curves 10 min, Ki = IC50/(1 + [S]/Km)), the Ki is 0.033 ± 0.007 µM.

As for `N#CC1(NC(=O)CCn2ccc3cc(F)ccc32)CC1` [8b, N-(1-Cyanocyclopropyl)-3-(5-fluoro-1H-indol-1-yl)propanamide], the inhibition at 100 µM on recombinant rhodesain is 9.6%.

As to `N#C[C@H](CCc1ccccc1)NC(=O)CCn1ccc2cc(F)ccc21` [4b, N-((S)-1-Cyano-3-phenylpropyl)-3-(5-fluoro-1H-indol-1-yl)propanamide], the melting point lay in the range of 142 to 143 °C. In addition, the inhibition at 100 µM at recombinant rhodesain was found to be 1.9%.

Compound `Cc1cn(CCC(=O)N[C@H](C#N)CCc2ccccc2)c2ccccc12` [3b, N-((S)-1-Cyano-3-phenylpropyl)-3-(3-methyl-1H-indol-1-yl)propanamide] came in with a melting point of 130 to 132 °C. The inhibition at 100 µM at recombinant rhodesain is 7.8%.

`Cc1cc2ccccc2n1CCC(=O)N[C@H](C#N)CCc1ccccc1` [2b, N-((S)-1-Cyano-3-phenylpropyl)-3-(2-methyl-1H-indol-1-yl)propanamide]: the melting point lay within 144 to 145 °C. Also, the IC50 in data set [1] (setting [3]) worked out at 12 ± 0.7 µM. The IC50 in data set [1] (48 h incubation, ATPlite cell viability, read-out: Antitrypanosomal IC50 (48 h)) turned out to be 12 ± 3 µM. Further, the IC50 in data set [2] was determined as 40.4 µM.

Compound `N#CC1(NC(=O)CCn2ccc3ccccc32)CC1` [5b, N-(1-Cyanocyclopropyl)-3-(1H-indol-1-yl)propanamide] came in with a melting point of 139 to 141 °C. In addition, the IC50 in data set [2] was greater than 50 µM. For the same compound, the inhibition at 100 µM on recombinant rhodesain (setting [4]) amounted to 4.4%.

Consider `N#CC1(NC(=O)Cn2ccc3cc(F)ccc32)CC1` [8a, N-(1-cyanocyclopropyl)-2-(5-fluoro-1H-indol-1-yl)acetamide], for which, on recombinant rhodesain, the inhibition at 100 µM was found to be 4.5%.

On to `N#CC1(NC(=O)Cn2ccc3ccccc32)CC1` [5a, N-(1-Cyanocyclopropyl)-2-(1H-indol-1-yl)acetamide], for which the IC50 in data set [2] was greater than 50 µM. Besides, the inhibition at 100 µM on recombinant rhodesain (setting [4]) was found to be 6.2%.

The compound `Cc1cn(CC(=O)N[C@H](C#N)CCc2ccccc2)c2ccccc12` [3a, N-((S)-1-Cyano-3-phenylpropyl)-2-(3-methyl-1H-indol-1-yl)acetamide] came in with a melting point of 114 to 115 °C. For the same compound, the IC50 in data set [2] is greater than 50 µM.

Take `Cc1cn(CCC(=O)NC2(C#N)CC2)c2ccccc12` [7b, N-(1-Cyanocyclopropyl)-3-(3-methyl-1H-indole-1-yl)propanamide]: on recombinant rhodesain, the inhibition at 100 µM was 9.5%.

For the compound `Cc1cc2ccccc2n1CC(=O)NC1(C#N)CC1` [6a, N-(1-Cyanocyclopropyl)-2-(2-methyl-1H-indol-1-yl)acetamide], in data set [2], the IC50 was greater than 50 µM. Further, the “Rhodesain Percentage of Inhibition at 100 μM” value at recombinant rhodesain (setting [4]) is “n.i”.

As for `Cc1cn(CC(=O)NC2(C#N)CC2)c2ccccc12` [7a, N-(1-Cyanocyclopropyl)-2-(3-methyl-1H-indol-1-yl)acetamide], the IC50 in data set [2] was greater than 50 µM. Moreover, on recombinant rhodesain (setting [4]), the “Rhodesain Percentage of Inhibition at 100 μM” value is given as “n.i”.
